Experimental data reported in US12503448B2, “Antibacterial and antiparasitic quinoxaline-2,3-diamine derivatives” (University College Cardiff Consultants Limited, priority 2019, dated 2025).
≈ marks a conversion by molar mass, not a printed value. Like-named read-outs stand apart in the source and are kept apart here.

Key:
[1] = Mouse pharmacokinetics, oral cassette dosing
Description: Non-compartmental mouse pharmacokinetics (Male C57/BL6 Mouse, Fasted; 3 mice per group) were determined after oral administration of a nominal dose of 2.5 mg/kg of these formulations in cassettes (5 compounds/group) according to the protocols employed by WuXi (https://www.wuxiapptec.com; the CRO that conducted these studies).

E. coli ATCC 25922 = experiment: In vitro antibacterial activity; assay type: cell-based; details: Escherichia coli, ATCC25922
S. epidermidis NTCT11077 = experiment: In vitro antibacterial activity; assay type: cell-based; details: Staphylococcus epidermidis
[2] = system: F. hepatica newly excysted juveniles (NEJs); experiment: Newly excysted juveniles (NEJs) drug screen; assay type: cell-based, Fasciola hepatica; set-up: scale not given here; details: 10 μM, 72 h; higher score indicates lower worm activity
How it was run: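 Italian-strain F. hepatica NEJs, 25 per well, exposed to compound at 10 μM (0.1% DMSO) for 72 h at 37 °C, 5% CO2. Each parasite scored for phenotype and motility; averaged over two replicates, higher score meaning lower worm activity.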

S. mansoni schistosomula = experiment: 72 hours schistosomula drug screen; assay type: cell-based, Schistosoma mansoni; details: for Selectivity Index Schistosomula: HepG2 CC50 over schistosomula EC50; for EC50: Schistosoma mansoni
How it was run: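 Newly transformed S. mansoni schistosomula were screened for 72 h in 384-well format. Phenotype and motility were scored, and a schistosomula average was derived.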

B. cereus = experiment: In vitro antibacterial activity; assay type: cell-based; details: Bacillus cereus
S. aureus ATCC 29213 = experiment: In vitro antibacterial activity; assay type: cell-based; details: Staphylococcus aureus, ATCC29213
[3] = system: Staphylococcus aureus NCTC 12493; experiment: Antibacterial MIC (ISO 20776-1); assay type: cell-based; details: NCTC12493
Source text: (§1) In vitro Determination of Antibacterial Activity
(§2) Scientific Reports 8 (1), 2018. Bacterial strains of Enterococcus faecalis—ATCC 29212, NCTC 12201, ATCC 51299; Streptococcus pneumoniae—ATCC 49619, 18778, 21394, 21395; Haemophilus influenza—ATCC 49766, 18391, 17428; Staphylococcus aureus—NCTC 12493, ATCC BAA-077, ATCC 700698, 11051; used for testing the compounds, as previously described in “Clinical laboratory testing and in vitro diagnostics test systems—Susceptibility testing of infectious agents and evaluation of performance of antimicrobial susceptibility devices—Part 1: Reference methods for testing the in vitro activity of antimicrobial agentes against bacteria involved in infectious diseases, ISO/FDIS 20776-1:2006(E). All the procedures were carried out in a biosafety containment level 2.

[4] = system: Streptococcus pneumoniae 21395; experiment: Antibacterial MIC (ISO 20776-1); assay type: cell-based
Source text: as §1, §2

[5] = system: Streptococcus pneumoniae 18778; experiment: Antibacterial MIC (ISO 20776-1); assay type: cell-based
Source text: as §1, §2

[6] = system: Haemophilus influenzae ATCC 49766; experiment: Antibacterial MIC (ISO 20776-1); assay type: cell-based; details: ATCC49766
Source text: as §1, §2

[7] = system: Enterococcus faecalis ATCC 29212; experiment: Antibacterial MIC (ISO 20776-1); assay type: cell-based; details: ATCC29212
Source text: as §1, §2

[8] = system: Streptococcus pneumoniae 21394; experiment: Antibacterial MIC (ISO 20776-1); assay type: cell-based
Source text: as §1, §2

[9] = system: Enterococcus faecalis ATCC 51299; experiment: Antibacterial MIC (ISO 20776-1); assay type: cell-based; details: ATCC51299; Enterococcus faecalis ATCC 51299, Vancomycin resistance, vanB
Source text: as §1, §2

[10] = system: Staphylococcus aureus 11051; experiment: Antibacterial MIC (ISO 20776-1); assay type: cell-based
Source text: as §1, §2

[11] = system: Haemophilus influenzae 17428; experiment: Antibacterial MIC (ISO 20776-1); assay type: cell-based; details: Haemophilus influenzae 17428, Ampicillin resistance, PBP
Source text: as §1, §2

[12] = system: Staphylococcus aureus ATCC BAA-977; experiment: Antibacterial MIC (ISO 20776-1); assay type: cell-based; details: ATCCBAA977
Source text: as §1, §2

[13] = system: Staphylococcus aureus ATCC 700698; experiment: Antibacterial MIC (ISO 20776-1); assay type: cell-based; details: ATCC700698
Source text: as §1, §2

[14] = male, C57/BL6, mouse, plasma, po, 2.5 mg/kg
[15] = E. coli ATCC 25922, read-out: MIC90
[16] = S. epidermidis NTCT11077, read-out: MIC90
[17] = average of phenotype and motility, read-out: EC50 Schistosomula average
[18] = schistosomula, 72 hour culture, read-out: EC50 Motility
[19] = schistosomula, 72 hour culture, read-out: EC50 Phenotype
[20] = S. aureus ATCC 29213, read-out: MIC90
[21] = Staphylococcus aureus NCTC 12493, Flucloxacillin resistance, mecA, read-out: MIC
[22] = Streptococcus pneumoniae 21395, ERY, CLIND resistance, MLSB, read-out: MIC
[23] = Streptococcus pneumoniae 18778, ERY, TET resistance, read-out: MIC
[24] = Enterococcus faecalis ATCC 29212, read-out: MIC
[25] = Streptococcus pneumoniae 21394, Penicillin resistance, PBP, read-out: MIC
[26] = Staphylococcus aureus 11051, Tetracycline resistance, read-out: MIC
[27] = Staphylococcus aureus ATCC BAA-977, ERY/CLIND resistance, MLSB, read-out: MIC
[28] = Staphylococcus aureus ATCC 700698, Vancomycin resistance, hVISA, read-out: MIC
[29] = oral, nominal dose 2.5 mg/kg, cassette
[30] = Streptococcus pneumoniae, 21395
[31] = Streptococcus pneumoniae, 18778
[32] = Streptococcus pneumoniae, 21394

Row | SMILES | AUC(0-t) [1, 14] [ng·h/mL] | Cmax [1, 14] [ng/mL] | MRT last [1, 14] [h] | Tmax [1, 14] [h] | MIC90 (E. coli ATCC 25922; [15]) [µg/mL] | MIC90 (S. epidermidis NTCT11077; [16]) [µg/mL] | Motility (M) Mean score [2] | Phenotype (P) Mean score [2] | Selectivity Index Schistosomula (S. mansoni schistosomula) | EC50 (S. mansoni schistosomula; [17]) [nM] | EC50 (S. mansoni schistosomula; [18]) [nM] | EC50 (S. mansoni schistosomula; [19]) [nM] | MIC90 (B. cereus; B. cereus, read-out: MIC90) [µg/mL] | MIC90 (S. aureus ATCC 29213; [20]) [µg/mL] | MIC [3, 21] [µg/mL] | MIC [4, 22] [µg/mL] | MIC [6] [µg/mL] | MIC [9] [µg/mL] | MIC [11] [µg/mL] | MIC [13, 28] [µg/mL] | also measured
1 | COc1ccc(Nc2nc3ccc([N+](=O)[O-])cc3nc2Nc2ccc(OC)c(C(F)(F)F)c2)cc1C(F)(F)F [Compound 12, N^2, N^3-bis(4-methoxy-3-(tritluoromethyl)phenyl)-6-nitroquinoxaline-2,3-diamine] | 77.8 | 20.1 | 4.76 | 4 | > 125 | < 62.5 | 4.45 | 4.70 | 9 | 610 | 650 | 570 | < 62.5 | 62.5 (≈ 113 µM) | 1 (≈ 1.81 µM) | 8 (≈ 14.5 µM) | 64 (≈ 116 µM) | 1 (≈ 1.81 µM) | > 128 | 1 (≈ 1.81 µM) | MIC [5, 23]: 16 µg/mL (≈ 28.9 µM); MIC [7, 24]: 0.5 µg/mL (≈ 0.903 µM); MIC [8, 25]: 8 µg/mL (≈ 14.5 µM); MIC [10, 26]: 2 µg/mL (≈ 3.61 µM); MIC [12, 27]: 1 µg/mL (≈ 1.81 µM)
2 | O=[N+]([O-])c1ccc2nc(Nc3ccc(C(F)(F)F)cc3)c(Nc3ccc(C(F)(F)F)cc3)nc2c1 [Compound 11, 6-nitro-N^2, N^3-bis(4-(trifluoromethyl)phenyl)quinoxaline-2,3-diamine] | 419 | 68.8 | 6.5 | 4 | > 125 | < 62.5 | 4.17 | 4.28 | 33 | 480 | 530 | 420 | < 62.5 | 0.98 (≈ 1.99 µM) | 0.125 (≈ 0.253 µM) | 2 (≈ 4.05 µM) | 16 (≈ 32.4 µM) | 0.25 (≈ 0.507 µM) | 16 (≈ 32.4 µM) | 0.125 (≈ 0.253 µM) | half-life ([1]; male, C57/BL6, mouse, in vivo, po, 2.5 mg/kg): 3.74 h; AUC(0-inf) [1, 14]: 444 ng·h/mL; MRT inf [1, 14]: 7.84 h; AUCExtra [1, 29]: 1.82%; AUMCExtra [1, 29]: 6.77%; MIC [5, 23]: 4 µg/mL (≈ 8.11 µM); MIC [7, 24]: 0.06 µg/mL (≈ 0.122 µM); MIC [8, 25]: 4 µg/mL (≈ 8.11 µM); MIC [10, 26]: 0.125 µg/mL (≈ 0.253 µM); MIC [12, 27]: 0.125 µg/mL (≈ 0.253 µM)
3 | O=[N+]([O-])c1ccc2nc(Nc3cccc(Cl)c3)c(Nc3cccc(Cl)c3)nc2c1 [Compound 5, N^2, N^3-bis(3-chlorophenyl)-6-nitroquinoxaline-2,3-diamine] |  |  |  |  |  |  | 4.20 | 4.70 | 5 |  | 1300 | 1220 |  | < 3.91 |  |  | 4 (≈ 9.38 µM) | 0.25 (≈ 0.586 µM) | 8 (≈ 18.8 µM) |  | MIC90 (E. coli ATCC 25922): > 125 µg/mL; MIC90 (S. epidermidis NTCT11077; NTCT11077): < 62.5 µg/mL; MIC90 (B. cereus): 125 µg/mL (≈ 293 µM); MIC ([3]; Staphylococcus aureus): 0.06 µg/mL (≈ 0.141 µM); MIC [4, 30]: 4 µg/mL (≈ 9.38 µM); MIC [5, 31]: 8 µg/mL (≈ 18.8 µM); MIC ([7]; Enterococcus faecalis): 0.25 µg/mL (≈ 0.586 µM); MIC [8, 32]: 4 µg/mL (≈ 9.38 µM); MIC ([10]; Staphylococcus aureus, 11051): 0.125 µg/mL (≈ 0.293 µM); MIC ([12]; Staphylococcus aureus): 0.125 µg/mL (≈ 0.293 µM); MIC ([13]; Staphylococcus aureus): 0.125 µg/mL (≈ 0.293 µM)
4 | O=[N+]([O-])c1ccc2nc(Nc3ccc(F)c(C(F)(F)F)c3)c(Nc3ccc(F)c(C(F)(F)F)c3)nc2c1 [Compound 7, N^2, N^3-bis(4-fluoro-3-(trifluoromethyl)phenyl)-6-nitroquinoxaline-2,3-diamine] | 89.6 | 21.2 | 4.75 | 4 |  |  | 4.56 | 5.00 | 14 |  | 540 | 540 |  |  |  |  | > 64 | 0.5 (≈ 0.945 µM) | > 64 | 0.5 (≈ 0.945 µM) | MIC90 (E. coli ATCC 25922): 62.5 µg/mL (≈ 118 µM); MIC90 (S. epidermidis NTCT11077; NTCT11077): < 62.5 µg/mL; MIC90 (B. cereus): 125 µg/mL (≈ 236 µM); MIC90 (S. aureus ATCC 29213): 1.95 µg/mL (≈ 3.68 µM); MIC ([3]; Staphylococcus aureus): 0.5 µg/mL (≈ 0.945 µM); MIC [4, 30]: 8 µg/mL (≈ 15.1 µM); MIC [5, 31]: 32 µg/mL (≈ 60.5 µM); MIC ([7]; Enterococcus faecalis): 1 µg/mL (≈ 1.89 µM); MIC [8, 32]: 32 µg/mL (≈ 60.5 µM); MIC ([10]; Staphylococcus aureus, 11051): 0.5 µg/mL (≈ 0.945 µM); MIC ([12]; Staphylococcus aureus): 0.5 µg/mL (≈ 0.945 µM)
